Values quoted from earlier work as cited in patent US12458645B2, “Pediatric powder for oral suspension containing antiviral agent and method for the preparation thereof” (PHARMATHEN S.A., priority 2014, dated 2025).
Structures can show the parent of a compound that is named as a salt.

Tests used:
[1] = in words
[2] = in words; remark: listed apart in the source

solubility in dichloromethane [1] | solubility in water [1] | oral bioavailability [2] | SMILES
insoluble in dichloromethane | soluble in water |  | CC(C)[C@H](N)C(=O)OCCOCn1cnc2c(=O)[nH]c(N)nc21 [Valaciclovir hydrochloride, L-valine, 2-[(2-amino-1,6-dihydro-6-oxo-9H-purin-9-yl)methoxy] ethyl ester, mono hydrochloride]
 |  | poor oral bioavailability | Nc1nc2c(ncn2COCCO)c(=O)[nH]1 [acyclovir, Acyclovir]
